From patent publication US20030148929A1, “Nucleic acid carriers and pharmaceutical compositions for gene therapy” (Hisamitsu Pharmaceutical Co., Inc., priority 1998, published 2003)

What was measured:
[1] = test system: Balb/c mice; experiment: Survival rate of mice singly administered with high doses of carrier; format: in vivo; settings: pDBA, single
Experimental: The survival rate of mice was investigated in the manner described below when high doses of pDBA solution were directly administered to the mice.
pDBA was dissolved in physiological saline solution to prepare pDBA solutions having different concentrations. The pDBA solutions were administered to Balb/c mice intravenously through tail veins, and their symptoms were observed. pDBAs obtained in Synthetic Examples 1-7 (all listed in Table 2) were used. […]

[2] = test system: HepG2 cells; experiment: Introduction of FITC-labeled oligonucleotide into HepG2 cells using pDBA, flow cytometer; format: cell-based; settings: HepG2, 4 hours, FIG. 11 and 12
Experimental: An oligonucleotide labeled with FITC (20 mer, Pharmacia Corporation) was used to assess the efficiency of introduction into cells for the. complexes of the oligonucleotide with various pDBAs.
HepG2 cells were inoculated onto a 12-well petri dish at 1×10^5 cells/well and cultured for 24 hours. The FITC-labeled oligonucleotide was used, and pDBAs obtained in Synthetic Examples 3 and 5 were used as the nucleic acid carriers. Complexes were prepared from these three kinds (pDBAs and the FITC-labeled oligonucleotide) such that the ratios of oligonucleotide/pDBA were 1/1, 1/5, and 1/10 (w/w). The complex solutions were added to the HepG2 cells; and after culturing for 4 hours, the cells were washed with PBS(−) twice. After removal of PBS(−), the cells were separated from the dish using a cell dissociation solution (SIGMA-Aldrich Corporation) and the cell suspensions were subjected to measurement with a flow cytometer (FACS Calibur available from Becton Dickinson). The results are shown in FIG. 11 (oligonucleotide/pDBA=1/5(w/w)), where M1 represents the results from control experiment and M2 represents the results from the experiment using the FITC-labeled oligonucleotide).

[3] = test system: Balb/c mice; experiment: Gene introduction into mice with plasmid A/pDBA complexes given intravenously through tail veins, luciferase activity in tissues; format: in vivo; settings: for luciferase activity in the liver: plasmid/pDBA 1/7 (w/w)
Experimental: A solution of plasmid A and a solution of pDBA were prepared, respectively, at twice the desired concentration. Approximately 30 minutes prior to administration, the pDBA solution was added dropwise to the plasmid solution with stirring to prepare a plasmid/(nucleic acid carrier) complex solution. DMEM medium was used as solvent. Specifically, a 50 μg/ml plasmid solution was prepared such that a plasmid/(nucleic acid carrier) complex solution having a plasmid concentration of 25.0 μg/ml would be used as an administration sample.
Complex solutions were prepared from pDBA obtained in Example 3 and plasmid A such that the weight ratio of plasmid/pDBA was 1/7 (w/w) and were administered to Balb/c mice intravenously through tail veins. The dose of plasmid A per mouse was 12.5 μg/0.5 ml. Two days and twenty one days after administration the luciferase activity was measured in the lung, the liver and the spleen whereby gene introduction to the respective were determined.
Complex solutions were prepared from pDBA obtained in Synthetic Example 3 and plasmid A such that different weight ratios of plasmid to pDBA (plasmid/pDBA=1/0, 1/1, 1/5, 1/10, and 1/20) were realized; and they were administered to Balb/c mice intravenously through tail veins.
Two days after administration the luciferase activity found in the liver was measured whereby gene introduction to the respective mouse tissues were determined.
Complexes were prepared from five kinds of pDBA obtained in Synthetic Examples 1, 2, 3, 4, and 5 (all listed in Table 2) and plasmid A such that the weight ratio of plasmid/pDBA was 1/5 (w/w); and they were administered to mice intravenously through tail veins. Two days after administration the luciferase activity in the liver was measured.
Similarly to Example 4, Plasmid A/pDBA complex solutions that were prepared were administered to Balb/C mice (8-week old male) intravenously through tail veins. Gene expression in the liver after administration was assessed by measuring the luciferase activity. pDBA obtained in Synthetic Example 3 in Table 2 was used to prepare a complex solution such that plasmid/pDBA was equal to 1/5 (w/W), which was used in the administration described above.

[4] = test system: HepG2 cells; experiment: Gene introduction into HepG2 cells with plasmid A/pDBA complexes, activity of the expressed luciferase; format: cell-based; settings: plasmid/pDBA weight ratios 1/1 to 1/20 (w/w), FIG. 3
Experimental: A solution of a plasmid encoding the luciferase gene (about 5.25 kb: PicaGene control vector into which the luciferase gene was previously introduced (Toyo Ink Mfg. Co. Ltd.) that will be referred to as “plasmid A” hereinafter) and a solution of a nucleic acid carrier were prepared, respectively, at twice the desired concentration. Approximately 30 minutes prior to administration, the nucleic acid carrier solution was added dropwise to the plasmid solution with stirring to prepare a plasmid/(nucleic acid carrier) complex solution. DMEM medium (Sigma-Aldrich Corporation) was used as solvent. Specifically, a 25 μg/ml plasmid solution was prepared such that a plasmid/(nucleic acid carrier) complex solution having a plasmid concentration of 12.5 μg/ml would be used as an administration sample.
HepG2 cells were inoculated onto a 12-well multi-well plate (Coaster Inc.) at 1×10^5 cells/well one day prior to testing. […] The luciferase activity of the supernatant was measured on a Luciferase Assay System (Toyo Inc. Mfg. Co. Ltd.) using a luminometer (Lumit LB9501 available from Berthold Pty Ltd.). The protein concentration of the centrifuged supernatant was measured in a Protein Assay Kit (Bio-Rad Laboratories, Inc.) using a microplate reader (Rainbow Thermo available from Tecan U.S., Inc.). […]

[5] = test system: guinea pigs (Hartley line); settings: guinea pig, in vivo

## Poly(DL-2,4-diaminobutyric acid) Acetate [Synthetic Example 6]
[1]; dose 3.1 mg/kg iv, listed as 278, 3.1 mg/kg
  Survival rate (survival number/case number): 3/3
[1]; dose 6.3 mg/kg iv, listed as 278, 6.3 mg/kg
  Survival rate (survival number/case number): 0/3

## Poly(DL-2,4-diaminobutyric acid) Acetate [Synthetic Example 5]
[1]; dose 3.1 mg/kg iv, listed as 170, 3.1 mg/kg
  Survival rate (survival number/case number): 3/3
[1]; dose 6.3 mg/kg iv, listed as 170, 6.3 mg/kg
  Survival rate (survival number/case number): 0/3

## Poly(DL-2,4-diaminobutyric acid) Acetate [Synthetic Example 1]
[2]
  cellular introduction / incorporation of the FITC-labeled oligonucleotide: little incorporation of oligonucleotide
[1]; dose 1.6 mg/kg iv
  Survival rate (survival number/case number): 3/3
[1]; dose 3.1 mg/kg iv, listed as 12, 3.1 mg/kg
  Survival rate (survival number/case number): 3/3
[1]; dose 6.3 mg/kg iv, listed as 12, 6.3 mg/kg
  Survival rate (survival number/case number): 3/3
[1]; dose 12.5 mg/kg iv
  Survival rate (survival number/case number): 0/3

## Poly(DL-2,4-diaminobutyric acid) Acetate [Synthetic Example 7]
[1]; dose 3.1 mg/kg iv, listed as 348, 3.1 mg/kg
  Survival rate (survival number/case number): 1/3
[1]; dose 6.3 mg/kg iv, listed as 348, 6.3 mg/kg
  Survival rate (survival number/case number): 0/3

## Poly(DL-2,4-diaminobutyric acid) Acetate [Synthetic Example 4]
[1]; dose 3.1 mg/kg iv, listed as 62, 3.1 mg/kg
  Survival rate (survival number/case number): 3/3
[1]; dose 6.3 mg/kg iv, listed as 62, 6.3 mg/kg
  Survival rate (survival number/case number): 2/3

## Poly(DL-2,4-diaminobutyric acid) Acetate [Synthetic Example 3]
[3]; 21 days after iv administration, FIG. 5B
  luciferase activity in the liver: maintained even 21 days after administration
[3]; Balb/C mice, iv tail vein, plasmid A, plasmid/pDBA 1/5 (w/W), FIG. 8
  duration of gene expression in the liver after a single administration: ≥ 7 months
[3]; two days after iv administration, plasmid/pDBA 1/0, 1/1, 1/5, 1/10, 1/20, FIG. 6
  gene expression (luciferase activity in the liver): As the quantity of pDBA relative to the plasmid increases, the gene expression has the tendency to increase
[3]; two days after iv administration, compared with plasmid only, FIG. 5A
  luciferase activity in the liver: markedly high luciferase activity
[4]
  gene expression (activity of the expressed luciferase): as the quantity of pDBA relative to plasmid increases, so does the gene expression
[5]
  immunogenicity: very low
[1]; dose 3.1 mg/kg iv, listed as 49, 3.1 mg/kg
  Survival rate (survival number/case number): 3/3
[1]; dose 6.3 mg/kg iv, listed as 49, 6.3 mg/kg
  Survival rate (survival number/case number): 3/3

## Poly(DL-2,4-diaminobutyric acid) Acetate [Synthetic Example 2]
[1]; dose 3.1 mg/kg iv, listed as 26, 3.1 mg/kg
  Survival rate (survival number/case number): 3/3
[1]; dose 6.3 mg/kg iv, listed as 26, 6.3 mg/kg
  Survival rate (survival number/case number): 3/3
